Key:
COVID-19 [1] = conditions: COVID-19 patients, stage-2 clinical trial; cited from earlier work
COVID-19 [2] = conditions: randomized clinical trials; cited from earlier work
CD8^+TM = test: SARS-CoV-2 specific peptide activation of COVID(+) PBMCs in presence or absence of Mdivi-1, flow cytometry of CD8+TM; type: cell-based, human; conditions: 20 μM Mdivi-1 vs vehicle, 96 hr, CD8a SARS-CoV-2 megapool peptide, PBMCs from COVID-19(+) patients
Protocol: (§1) PBMCs (0.5×10^6 cells) were first stained with live/dead in PBS for 15 min, washed with Flow Cytometry Staining Buffer (FACS Buffer), and stained with surface markers in ice-cold FACS buffer at 4° C. for 30 min. PBMCs were then washed twice with FACS buffer and stained with secondary antibodies for 15 minutes. Samples were fixed and permeabilized using Fixation/Permeabilization buffer (20 min) at room temperature and washed with ice-cold FACS buffer. PBMCs were then stained with intracellular antibodies at 37° C. for 45 min in permeabilization buffer. Samples were washed once with permeabilization buffer before being resuspended in FACS buffer for flow cytometric analysis using Cytoflex system. Data was then analyzed by Flowjo™v10.
(§2) PBMCs (5×10^5) were stimulated with […] of CD8a SARS-CoV-2 megapool peptide^92 in the presence of absence of 20 μM Mdivi-1 at 37° C., 5% C02 for 96 hr.
(§3) FIGS. 15A-F. Mitophagy inhibition restores CD8^+Tc and SARS-CoV-2 specific CD8^+Tc function. PBMCs from 5 COVID-19(+) patients were activated with SARS-CoV-2 megapool CD8a peptide (see Methods) in the presence or absence of MDIVI-1 (20 μM). One sample was excluded from analysis due to critically low CD8^+Tc count. […] Two-tailed student's T-test was used. *p<0.05, **p<0.01, and ***p<0.001.

SARS-CoV-2 = conditions: virally infected cells; cited from earlier work
CD8^+Tc = test: SARS-CoV-2 specific peptide activation of COVID(+) PBMCs in presence or absence of Mdivi-1, flow cytometry of CD8+Tc; type: cell-based, human; conditions: 20 μM Mdivi-1 vs vehicle, 96 hr, CD8a SARS-CoV-2 megapool peptide, PBMCs from COVID-19(+) patients
Protocol: as §1, §2, §3

[3] = system: SARS-CoV-2 specific CD8^+Tc; conditions: through normalizing cellular metabolism; cited from earlier work

For `O=CC[C@@H](O)[C@H](O)[C@H](O)CO` [2-DG, 2-deoxy-glucose], the patient outcomes (COVID-19 [1]) is listed as “successful in improving patient outcomes”.
For `CCN(CCO)CCCC(C)Nc1ccnc2cc(Cl)ccc12` (stereo not drawn) [Hydroxychloroquine], the “efficacy in COVID-19” value (COVID-19 [2]) is given as “ineffective”.
In the case of `COc1cc(-n2c(=S)[nH]c3ccccc3c2=O)c(Cl)cc1Cl` [Mdivi-1], the “Glut-1 expression in CD8^+TM” value (CD8^+TM) is given as “reduced”, the “CD8^+TM proliferation (Ki-67)” value (CD8^+TM; FIG. 15E) is given as “augmented” and the SARS-CoV-2 replication (SARS-CoV-2) is given as “effectively reduce”. For the same molecule, the “generation of SARS-CoV-2-specific CD137^+ cells amongst CD8+Tc” value (CD8^+Tc; FIG. 15B) was “improved”, the “proliferation (Ki-67^+ cells) of CD8+Tc” value (CD8^+Tc; FIG. 15C) was “induced” and the “IFNy-secreting capacity of CD8^+Tc” value (CD8^+Tc; FIG. 15D) was “induced”.
In the case of “cyclophilin A: found to restore SARS-CoV-2 specific CD8+Tc function through normalizing cellular metabolism”, the “SARS-CoV-2 specific CD8^+Tc function” value [3] is given as “restore”.
